Reference: ChEMBL document CHEMBL1212814, “Polyamines in drug discovery: from the universal template approach to the multitarget-directed ligand design strategy” (J Med Chem, 2010)

Assay: Inhibition of amyloid beta (1-40) aggregation by thioflavin T based fluorometric assay

Row | Compound | IC50 [µM]
1 | CN(C)[C@@H]1C(O)=C(C(N)=O)C(=O)[C@@]2(O)C(O)=C3C(=O)c4c(O)cccc4[C@@](C)(O)[C@H]3C[C@@H]12 [TETRACYCLINE] | 60.3
2 | CCN(CCCCCCNC1=CC(=O)C(NCCCCCCN(CC)Cc2ccccc2OC)=CC1=O)Cc1ccccc1OC [MEMOQUIN] | 5.93
